target: T1, Broad substrate specificity ATP-binding cassette transporter ABCG2 (Homo sapiens, UniProt Q9UNQ0); experiment: TP_TRANSPORTER: inhibition of ATPase in membrane vesicle from BCRP-expressing Sf9 cells; type: functional, cell membranes; settings: not given
T1 sequence (Q9UNQ0 whole entry): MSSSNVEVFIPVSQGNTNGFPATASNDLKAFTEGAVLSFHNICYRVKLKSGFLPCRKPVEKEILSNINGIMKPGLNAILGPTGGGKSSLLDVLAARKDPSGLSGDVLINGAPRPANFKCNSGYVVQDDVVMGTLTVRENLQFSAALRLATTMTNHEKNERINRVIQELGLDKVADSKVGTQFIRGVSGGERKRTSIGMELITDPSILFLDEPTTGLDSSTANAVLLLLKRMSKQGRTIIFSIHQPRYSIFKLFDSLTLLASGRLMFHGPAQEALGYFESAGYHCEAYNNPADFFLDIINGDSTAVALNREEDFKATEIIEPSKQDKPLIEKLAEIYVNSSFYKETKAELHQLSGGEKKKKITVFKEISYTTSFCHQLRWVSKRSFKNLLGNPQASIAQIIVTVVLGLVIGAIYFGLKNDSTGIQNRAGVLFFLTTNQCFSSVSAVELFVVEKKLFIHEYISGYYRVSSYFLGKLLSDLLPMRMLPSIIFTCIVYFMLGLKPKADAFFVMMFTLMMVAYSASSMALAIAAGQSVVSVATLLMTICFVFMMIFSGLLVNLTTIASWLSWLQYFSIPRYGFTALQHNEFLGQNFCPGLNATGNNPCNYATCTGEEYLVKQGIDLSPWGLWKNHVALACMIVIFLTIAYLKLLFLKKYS

`COc1ccc2c3c([nH]c2c1)[C@H](C=C(C)C)N1C(=O)[C@@H]2CCCN2C(=O)[C@@H]1C3` [FUMITREMORGIN] showed a Ki of 1.3 µM.

target: T1, Broad substrate specificity ATP-binding cassette transporter ABCG2; experiment: TP_TRANSPORTER: ATP hydrolysis in membrane vesicle from BCRP-expressing Sf9 cells; type: functional, cell membranes; settings: read-out: Kact

Point of comparison: `COc1cc2nc(N3CCN(C(=O)c4ccco4)CC3)nc(N)c2cc1OC` [PRAZOSIN], EC50 1 µM. Against it:
- COC(=O)c1ccccc1-c1c2ccc(=N)cc-2oc2cc(N)ccc12 [RHODAMINE123] — 4.5-fold higher, 4.5 µM
- COc1cccc2c1C(=O)c1c(O)c3c(c(O)c1C2=O)C[C@@](O)(C(C)=O)C[C@@H]3O[C@H]1C[C@H](N)[C@H](O)[C@H](C)O1 [DAUNORUBICIN] — 2.5-fold higher, 2.5 µM
- COc1cccc2c1C(=O)c1c(O)c3c(c(O)c1C2=O)C[C@@](O)(C(=O)CO)C[C@@H]3O[C@H]1C[C@H](N)[C@H](O)[C@H](C)O1 [DOXORUBICIN] — 5-fold higher, 5 µM
- O=C1c2c(O)ccc(O)c2C(=O)c2c(NCCNCCO)ccc(NCCNCCO)c21 [MITOXANTRONE] — 7-fold higher, 7 µM
